Target: T1, Fatty acid synthase (FAS) (Gallus gallus, UniProt P12276)
T1 construct: gene FASN; FAS purified from chicken liver
Experiment: spectrophotometric NADPH oxidation assay ([…] nm) of purified FAS, overall and KR reactions; time-dependent inhibition and Lineweaver-Burk kinetics
Assay type: biochemical

T1 sequence (P12276 2-2512): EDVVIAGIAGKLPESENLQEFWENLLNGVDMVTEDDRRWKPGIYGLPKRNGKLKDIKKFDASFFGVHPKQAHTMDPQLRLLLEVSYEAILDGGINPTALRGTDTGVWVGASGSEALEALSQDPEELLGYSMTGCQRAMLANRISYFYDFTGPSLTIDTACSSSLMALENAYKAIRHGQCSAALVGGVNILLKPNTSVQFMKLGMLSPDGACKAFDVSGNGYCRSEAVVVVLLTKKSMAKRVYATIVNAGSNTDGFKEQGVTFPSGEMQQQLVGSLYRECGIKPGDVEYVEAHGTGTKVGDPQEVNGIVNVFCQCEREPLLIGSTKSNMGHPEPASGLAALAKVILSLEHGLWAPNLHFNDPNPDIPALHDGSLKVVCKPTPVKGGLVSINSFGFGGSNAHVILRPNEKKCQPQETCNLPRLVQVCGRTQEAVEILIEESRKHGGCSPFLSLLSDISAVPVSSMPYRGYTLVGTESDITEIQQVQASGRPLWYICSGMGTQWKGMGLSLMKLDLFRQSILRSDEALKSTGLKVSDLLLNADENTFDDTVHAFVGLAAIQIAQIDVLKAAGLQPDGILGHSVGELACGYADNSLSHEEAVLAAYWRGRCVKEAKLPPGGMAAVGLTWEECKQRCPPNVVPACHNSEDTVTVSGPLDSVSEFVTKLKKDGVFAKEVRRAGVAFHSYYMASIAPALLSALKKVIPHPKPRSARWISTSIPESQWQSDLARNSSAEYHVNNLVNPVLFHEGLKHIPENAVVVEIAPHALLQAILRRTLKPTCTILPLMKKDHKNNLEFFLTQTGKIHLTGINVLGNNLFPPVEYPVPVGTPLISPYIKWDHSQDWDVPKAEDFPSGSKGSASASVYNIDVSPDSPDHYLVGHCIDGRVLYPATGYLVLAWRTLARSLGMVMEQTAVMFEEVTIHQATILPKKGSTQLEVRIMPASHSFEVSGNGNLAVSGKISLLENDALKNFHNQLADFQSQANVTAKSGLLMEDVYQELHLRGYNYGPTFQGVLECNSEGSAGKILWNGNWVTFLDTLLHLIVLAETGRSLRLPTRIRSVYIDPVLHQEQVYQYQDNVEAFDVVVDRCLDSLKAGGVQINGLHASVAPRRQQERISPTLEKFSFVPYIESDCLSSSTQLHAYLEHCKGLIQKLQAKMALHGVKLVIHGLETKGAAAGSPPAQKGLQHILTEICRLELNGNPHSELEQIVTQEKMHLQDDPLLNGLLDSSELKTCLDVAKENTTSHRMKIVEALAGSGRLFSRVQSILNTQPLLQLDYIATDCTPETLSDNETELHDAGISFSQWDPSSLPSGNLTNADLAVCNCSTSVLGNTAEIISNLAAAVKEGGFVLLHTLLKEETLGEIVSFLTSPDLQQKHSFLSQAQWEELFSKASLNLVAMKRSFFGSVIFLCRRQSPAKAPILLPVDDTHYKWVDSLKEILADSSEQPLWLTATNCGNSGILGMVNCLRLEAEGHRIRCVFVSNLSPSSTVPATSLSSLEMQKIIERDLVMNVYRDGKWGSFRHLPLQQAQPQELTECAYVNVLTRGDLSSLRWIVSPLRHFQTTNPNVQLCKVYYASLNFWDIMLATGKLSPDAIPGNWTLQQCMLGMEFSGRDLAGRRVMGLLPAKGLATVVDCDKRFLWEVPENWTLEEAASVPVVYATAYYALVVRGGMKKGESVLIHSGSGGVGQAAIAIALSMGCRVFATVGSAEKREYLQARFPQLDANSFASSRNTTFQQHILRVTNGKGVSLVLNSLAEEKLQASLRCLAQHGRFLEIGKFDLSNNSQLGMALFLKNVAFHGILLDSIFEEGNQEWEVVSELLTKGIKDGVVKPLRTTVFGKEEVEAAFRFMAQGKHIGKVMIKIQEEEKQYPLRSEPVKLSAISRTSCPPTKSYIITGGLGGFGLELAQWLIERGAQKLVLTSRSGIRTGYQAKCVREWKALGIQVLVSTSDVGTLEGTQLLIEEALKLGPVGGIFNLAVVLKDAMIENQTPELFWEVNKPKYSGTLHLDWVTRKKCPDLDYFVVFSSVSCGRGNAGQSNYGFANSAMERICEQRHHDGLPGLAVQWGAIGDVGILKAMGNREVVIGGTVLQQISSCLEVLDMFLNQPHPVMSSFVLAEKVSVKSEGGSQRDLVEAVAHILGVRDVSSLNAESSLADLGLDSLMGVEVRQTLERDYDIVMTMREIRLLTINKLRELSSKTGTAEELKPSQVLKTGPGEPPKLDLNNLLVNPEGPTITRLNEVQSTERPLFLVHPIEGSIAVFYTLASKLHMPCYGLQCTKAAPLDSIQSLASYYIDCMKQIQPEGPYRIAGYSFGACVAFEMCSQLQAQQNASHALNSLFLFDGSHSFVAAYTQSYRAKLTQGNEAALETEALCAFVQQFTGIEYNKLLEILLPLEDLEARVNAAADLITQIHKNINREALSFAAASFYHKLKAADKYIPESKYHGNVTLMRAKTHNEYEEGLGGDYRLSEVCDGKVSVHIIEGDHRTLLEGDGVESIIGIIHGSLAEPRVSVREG

Question: How did the IC50 turn out when Oc1ccc(/C=C/c2cc(O)cc(O)c2)cc1 [resveratrol, 3,5,4′-trihydroxystilbene] was run?
Answer: 48.6 µM

From paper PMC3878625, “Inhibitory effects of grape skin extract and resveratrol on fatty acid synthase” (BMC Complementary and Alternative Medicine, 2013)
